These are literature values, as cited in patent US10927113B2, “Process for preparing purine derivatives” (Cyclacel Limited, priority 2017, dated 2021).

Data set [1] deals with CDK. As to conditions: background statement referring to WO 2008/122767.
Data set [2] relates to a range of different cell lines. As to conditions: background statement.

For the compound `CC[C@H](Nc1nc(NCc2cnc(C)cc2C)c2ncn(C(C)C)c2n1)[C@@H](C)O` [Compound [1]], the CDK inhibitory activity result in data set [1] is reported as “potent CDK inhibitory activity”. In addition, the “potency in cellular toxicity studies” value in data set [2] is given as “surprisingly high potency”.
